# In ChEMBL document CHEMBL1201862, “PubChem BioAssay data set” (2004):
#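 Assay format: 96-well plates, 48-hour exposure. At the GI50, growth is halved.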 Activity calls are given as the source filed them. No stated cut-off is given here; in the data, active = GI50 up to about 1.1 µM and inactive = higher.
# Tests used:
# Assay in all cases: NCI anticancer screen, dose series, 48 h
# OVCAR-5 = test system: OVCAR-5
# SW-620 = test system: SW-620
# KM12 = test system: KM12
# DMS-273 = test system: DMS-273
# HOP-18 = test system: HOP-18
# EKVX = test system: EKVX
# K562 = test system: K562
# NCI-H23 = test system: NCI-H23
# LOX IMVI = test system: LOX IMVI
# KM-20L2 = test system: KM-20L2
# DLD-1 = test system: DLD-1
# RXF 631 = test system: RXF 631
# SN12C = test system: SN12C
# HCT-116 = test system: HCT-116
# CCRF-CEM = test system: CCRF-CEM
# OVCAR-4 = test system: OVCAR-4
# IGROV-1 = test system: IGROV-1
# COLO 205 = test system: COLO 205
# LXFL 529 = test system: LXFL 529
# TK-10 = test system: TK-10
# NCI-H460 = test system: NCI-H460
# UO-31 = test system: UO-31
# DMS-114 = test system: DMS-114
# SNB-19 = test system: SNB-19
# SK-MEL-28 = test system: SK-MEL-28
# HCC 2998 = test system: HCC 2998
# OVCAR-8 = test system: OVCAR-8
# NCI-H226 = test system: NCI-H226
# HOP-62 = test system: HOP-62
# Malme-3M = test system: Malme-3M
# OVCAR-3 = test system: OVCAR-3
# M19-MEL = test system: M19-MEL
# SK-MEL-2 = test system: SK-MEL-2
# U-251 = test system: U-251
# UACC-62 = test system: UACC-62
# ACHN = test system: ACHN
# M14 = test system: M14
# SK-MEL-5 = test system: SK-MEL-5
# RPMI-8226 = test system: RPMI-8226
# SNB-75 = test system: SNB-75
# 786-0 = test system: 786-0
# SF-268 = test system: SF-268
# HCT-15 = test system: HCT-15
# HL-60 = test system: HL-60
# A498 = test system: A498
# A549 = test system: A549
# NCI-H522 = test system: NCI-H522
# SK-OV-3 = test system: SK-OV-3
# SF-295 = test system: SF-295
# MOLT-4 = test system: MOLT-4
# CAKI-1 = test system: CAKI-1
# UACC-257 = test system: UACC-257
# PC-3 = test system: PC-3
# Hs-578T = test system: Hs-578T
# DU-145 = test system: DU-145
# HOP-92 = test system: HOP-92
# RXF 393 = test system: RXF 393
# MDA-MB-435 = test system: MDA-MB-435
# HT-29 = test system: HT-29
# SNB-78 = test system: SNB-78
# MDA-MB-231 = test system: MDA-MB-231
# MDA-N = test system: MDA-N
# BT-549 = test system: BT-549
# MCF7 = test system: MCF7
# SR = test system: SR
# T47D = test system: T47D
# XF498 = test system: XF498
# NCI/ADR-RES = test system: NCI/ADR-RES
# SF-539 = test system: SF-539
smiles,measurement,setting,value
N=C(N)NCCCC(Nc1c2ccccc2[n+]([O-])c2ccccc12)C(=O)O (stereo not drawn),GI50,OVCAR-5,56.5 µM (inactive)
same,GI50,SW-620,59.2 µM (inactive)
same,GI50,KM12,68.4 µM (inactive)
same,GI50,DMS-273,40.5 µM (inactive)
same,GI50,HOP-18,33.3 µM (inactive)
same,GI50,EKVX,96.6 µM (inactive)
same,GI50,K562,27 µM (inactive)
same,GI50,NCI-H23,34.6 µM (inactive)
same,GI50,LOX IMVI,37.3 µM (inactive)
same,GI50,KM-20L2,95.7 µM (inactive)
same,GI50,DLD-1,28.4 µM (inactive)
same,GI50,RXF 631,> 100 µM (inactive)
same,GI50,SN12C,44.1 µM (inactive)
same,GI50,HCT-116,24.9 µM (inactive)
same,GI50,CCRF-CEM,33.4 µM (inactive)
same,GI50,OVCAR-4,65.5 µM (inactive)
same,GI50,IGROV-1,> 100 µM (inactive)
same,GI50,COLO 205,27.3 µM (inactive)
same,GI50,LXFL 529,22.5 µM (inactive)
same,GI50,TK-10,> 100 µM (inactive)
same,GI50,NCI-H460,46 µM (inactive)
same,GI50,UO-31,30.8 µM (inactive)
same,GI50,DMS-114,23.6 µM (inactive)
same,GI50,SNB-19,64 µM (inactive)
same,GI50,SK-MEL-28,27.2 µM (inactive)
same,GI50,HCC 2998,27.2 µM (inactive)
same,GI50,OVCAR-8,31.6 µM (inactive)
same,GI50,NCI-H226,70.6 µM (inactive)
same,GI50,HOP-62,> 100 µM (inactive)
same,GI50,Malme-3M,39.4 µM (inactive)
same,GI50,OVCAR-3,63.4 µM (inactive)
same,GI50,M19-MEL,44.7 µM (inactive)
same,GI50,SK-MEL-2,88.3 µM (inactive)
same,GI50,U-251,72.3 µM (inactive)
same,GI50,UACC-62,42.5 µM (inactive)
same,GI50,ACHN,23.1 µM (inactive)
same,GI50,M14,73.6 µM (inactive)
same,GI50,SK-MEL-5,22.6 µM (inactive)
same,GI50,RPMI-8226,10.4 µM (inactive)
same,GI50,SNB-75,34.8 µM (inactive)
same,GI50,786-0,67.5 µM (inactive)
same,GI50,SF-268,56.4 µM (inactive)
same,GI50,HCT-15,36.8 µM
same,GI50,HL-60,14.8 µM (inactive)
same,GI50,A498,> 100 µM (inactive)
same,GI50,A549,> 100 µM (inactive)
same,GI50,NCI-H522,29 µM (inactive)
same,GI50,SK-OV-3,> 100 µM (inactive)
same,GI50,SF-295,> 100 µM (inactive)
same,GI50,MOLT-4,37.8 µM (inactive)
CCCCCCCCCCCC(=O)OC[C@H](C[As](=O)(O)O)OC(=O)CCCCCCCCCCC,GI50,CAKI-1,8.55 µM (inactive)
same,GI50,OVCAR-5,18.2 µM (inactive)
same,GI50,SW-620,14.4 µM (inactive)
same,GI50,KM12,8.11 µM (inactive)
same,GI50,DMS-273,3.98 µM (inactive)
same,GI50,UACC-257,11 µM (inactive)
same,GI50,PC-3,2.9 µM (inactive)
same,GI50,HOP-18,7.29 µM (inactive)
same,GI50,Hs-578T,2.78 µM (inactive)
same,GI50,EKVX,10.2 µM (inactive)
same,GI50,K562,4.89 µM (inactive)
same,GI50,NCI-H23,5.98 µM (inactive)
same,GI50,LOX IMVI,8.79 µM (inactive)
same,GI50,KM-20L2,6.04 µM (inactive)
same,GI50,DLD-1,13.2 µM (inactive)
same,GI50,SN12C,3.73 µM (inactive)
same,GI50,HCT-116,8.89 µM (inactive)
same,GI50,CCRF-CEM,13.7 µM (inactive)
same,GI50,DU-145,17.3 µM (inactive)
same,GI50,HOP-92,1.75 µM (inactive)
same,GI50,OVCAR-4,17.7 µM (inactive)
same,GI50,IGROV-1,1.9 µM (inactive)
same,GI50,COLO 205,19.4 µM (inactive)
same,GI50,LXFL 529,3.82 µM (inactive)
same,GI50,TK-10,3.87 µM (inactive)
same,GI50,NCI-H460,4.79 µM (inactive)
same,GI50,UO-31,16 µM (inactive)
same,GI50,DMS-114,1.95 µM (inactive)
same,GI50,SNB-19,5.93 µM (inactive)
same,GI50,SK-MEL-28,3.94 µM (inactive)
same,GI50,RXF 393,1.92 µM (inactive)
same,GI50,HCC 2998,8.13 µM (inactive)
same,GI50,MDA-MB-435,2.64 µM (inactive)
same,GI50,OVCAR-8,13 µM (inactive)
same,GI50,NCI-H226,14.8 µM (inactive)
same,GI50,HOP-62,14.8 µM (inactive)
same,GI50,Malme-3M,2.3 µM (inactive)
same,GI50,OVCAR-3,5.92 µM (inactive)
same,GI50,M19-MEL,8.18 µM (inactive)
same,GI50,HT-29,8.02 µM (inactive)
same,GI50,SK-MEL-2,2.68 µM (inactive)
same,GI50,U-251,2.36 µM (inactive)
same,GI50,UACC-62,2.3 µM (inactive)
same,GI50,SNB-78,2.94 µM (inactive)
same,GI50,ACHN,2.79 µM (inactive)
same,GI50,MDA-MB-231,3.81 µM (inactive)
same,GI50,M14,2.62 µM (inactive)
same,GI50,MDA-N,4.34 µM (inactive)
same,GI50,BT-549,3.84 µM (inactive)
same,GI50,MCF7,8.75 µM (inactive)
same,GI50,SK-MEL-5,1.99 µM (inactive)
same,GI50,RPMI-8226,6.03 µM (inactive)
same,GI50,SNB-75,7.4 µM (inactive)
same,GI50,786-0,13.2 µM (inactive)
same,GI50,SR,9.68 µM (inactive)
same,GI50,SF-268,8.13 µM (inactive)
same,GI50,T47D,15.3 µM (inactive)
same,GI50,HCT-15,8.26 µM
same,GI50,HL-60,3.05 µM (inactive)
same,GI50,XF498,10.1 µM (inactive)
same,GI50,A498,6.31 µM (inactive)
same,GI50,NCI/ADR-RES,14.1 µM (inactive)
same,GI50,A549,6.92 µM (inactive)
same,GI50,NCI-H522,2.25 µM (inactive)
same,GI50,SK-OV-3,14.7 µM (inactive)
same,GI50,SF-539,14.2 µM (inactive)
same,GI50,SF-295,13.4 µM (inactive)
same,GI50,MOLT-4,6.14 µM (inactive)
